Test: PARIS III toxicological and environmental analysis of solvents (HTPI, EI)
Parameters: species or system human
Settings: binary solvent with water
Text: The examined chemical compounds are 2-trifluoromethyl-N′-[5-nitro-2-oxo-1,2-dihydro-3H-indol-3-ylidene]benzohydrazide (1), 3-Amino-N′-[5-nitro-2-oxo-1,2-dihydro-3H-indol-3-ylidene]benzohydrazide (2), and 3-nitro-N′-[5-nitro-2-oxo-1,2-dihydro-3H-indol-3-ylidene]benzohydrazide (3). The evaluation of the descriptors defining molecular properties, absorption, metabolism, and toxicity of considered drugs was estimated with the use of ADMETlab 2.0 [9]. The quantitative structure–activity relationship (QSAR) algorithms implemented in used software based on the chemical structures of considered drugs described by SMILES definitions are presented in Figure 1. The method of interpretation and definitions of particular descriptors obtained during the analysis are included in the Results and Discussion sections. The toxicological analysis of solvents was realized with the use of the Solvent Substitution Software Tool, PARIS III [40, 41]. The characteristics of the Human Toxicity Potential by Ingestion (HTPI) of individual solvents and sets of binary solvents analyzed in this work were obtained based on the values of LD50 for particular solvents.
Additionally, the values of the Environmental Index (EI) were also estimated based on a set of eight environmental impact scores, which included, among others, HTPI, terrestrial toxicity potential, and aquatic toxicity potential. In the case of Equation (2), the σj is the weight for considered impact j, the φi,j stands for the value of normalized impact for considered solvent. (2) EIi=∑j=18σjφi,j¯

Row | Compound | % HTPI x1.0 (relative to the pure organic solvent) (x* 0.1) [%] | % HTPI x1.0 (relative to the pure organic solvent) (x* 0.2) [%] | % HTPI x1.0 (relative to the pure organic solvent) (x* 0.3) [%] | % HTPI x1.0 (relative to the pure organic solvent) (x* 0.4) [%] | % HTPI x1.0 (relative to the pure organic solvent) (x* 0.5) [%] | % HTPI x1.0 (relative to the pure organic solvent) (x* 0.6) [%] | % HTPI x1.0 (relative to the pure organic solvent) (x* 0.7) [%] | % HTPI x1.0 (relative to the pure organic solvent) (x* 0.8) [%] | % HTPI x1.0 (relative to the pure organic solvent) (x* 0.9) [%] | % HTPI x1.0 (relative to the pure organic solvent) (x* 1.0) [%]
1 | C[S+](C)[O-] [DMSO, dimethyl sulfoxide] | 37.7 | 55.8 | 67.8 | 76.4 | 83.1 | 87.7 | 91.5 | 95.4 | 97.7 | 100.0
2 | CN1CCCC1=O [NMP, N-methyl-2-pyrrolidone] | 39.1 | 58.8 | 70.8 | 79.1 | 84.9 | 89.4 | 93.0 | 95.9 | 98.1 | 100.0

Reference: PMC10669656, “ADMET and Solubility Analysis of New 5-Nitroisatine-Based Inhibitors of CDK2 Enzymes” (Biomedicines, 2023)
